According to PMC7822874, “Chemoprotective antimalarials identified through quantitative high-throughput screening of Plasmodium blood and liver stage parasites” (Scientific Reports, 2021):
Where two headings read alike, the source gives them in different places.

Tests used:
[1] = system: luciferase-expressing P. berghei liver stage parasites in HepG2 cells; experiment: Inhibition of liver-stage development assay (ILSDA), Method 2 (WRAIR, 96-well); assay type: cell-based, Plasmodium berghei; settings: for Activity direction (Decrease / Inactive): P. berghei liver stage; for AC50: Plasmodium berghei; for Max Resp (signal direction of the dose response): Method 2, Decrease = decreasing P. berghei viability with dose, Increase = increasing signal, Inactive = no dose response
[2] = system: Plasmodium falciparum Dd2 asexual blood stage parasites; experiment: microbe, parasite or virus in culture; set-up: species or system Plasmodium falciparum Dd2 in human erythrocytes; single determination (one 11-point concentration-response curve); settings: Plasmodium falciparum, DD2, Erythrocyte, 72 h; read-out: AC50
[3] = system: P. berghei-ANKA-GFP-LucCON liver stage parasites in HepG2-A16-CD81EGFP cells; experiment: P. berghei liver stage Pb-Luc assay, Method 1 (UCSD, 1536-well); assay type: cell-based, Plasmodium berghei; settings: for Max Resp (signal direction of the dose response) / AC50: Method 1; for Max Resp (signal direction of the dose response): Decrease = decreasing P. berghei viability with dose, Increase = increasing signal, Inactive = no dose response; for AC50 / activity at 1 µM / activity at 3 µM: Plasmodium berghei; for activity at 1 µM / activity at 3 µM: 48 h, average of 2 wells on a 1536 well plate; for activity at 1 µM: 1 uM (compounds provided at 10 mM); for activity at 3 µM: 3 uM (compounds provided at 10 mM)
[4] = HepG2, P. berghei liver stage, Method 2, dose response, read-out: AC50
[5] = HepG2, P. berghei liver stage, Method 2, dose response, read-out: Log AC50 (converted)
[6] = Hill fit, 50% of maximum activity response, read-out: AC50
[7] = log10 of molar AC50 from Hill fit, read-out: Log AC50 (converted)
[8] = HepG2, Method 2, Hill fit, 50% of maximum activity response, read-out: AC50
[9] = HepG2, Method 2, log10 of molar AC50 from Hill fit, read-out: Log AC50 (converted)

Structure (SMILES) | Activity direction (Decrease / Inactive) ([1]; Method 2, dose response) | AC50 [2] | Max Resp (signal direction of the dose response) [1] | AC50 [1, 8] | AC50 [1, 9] | also measured
CC(C)CC1=N[S+](=O)([O-])c2cc(NC(=O)C3CC3)ccc2N1c1ccccc1 [NCGC00475156-01] | Decrease |  |  |  |  | AC50 [1, 4]: 3160 nM; AC50 [1, 5]: 3160 nM
Cc1nc2c(c(N3CCCC(COc4cccc(F)c4)C3)n1)CCNCC2 (stereo not shown) [NCGC00440030-01] | Inactive | 8410 nM |  |  |  | 
Cc1cccc(N2CCN(c3nc4ccccc4c4nnc(C)n34)CC2)c1C [NCGC00107423] |  |  | Inactive |  |  | 
O=C(NCC1CN(C(=O)Cc2cccc(OC(F)(F)F)c2)CC12CN(c1ccccc1)C2)c1ccccc1 (stereo not shown) [NCGC00415900-01] | Inactive |  |  |  |  | 
COc1cc(/C=C(\C#N)c2nc3ccccc3[nH]2)ccc1OCc1ccc(F)cc1 [NCGC00102606-01] |  | 5310 nM | Decrease | 794 nM | 794 nM | Max Resp (signal direction of the dose response) [3]: Decrease; AC50 [3, 6]: 1410 nM; AC50 [3, 7]: 1410 nM
Cc1cccc(N2CCN(c3nc4ccccc4c4nnc(C)n34)CC2)c1C [NCGC00107423-01] |  | 5310 nM | Decrease | 89 nM | 89.1 nM | Max Resp (signal direction of the dose response) [3]: Inactive
Cc1ccc(NC2=C(c3ccc(C(F)(F)F)cc3)C(=O)c3ccccc32)cc1F [NCGC00107266] |  |  | Decrease | 112 nM | 112 nM | 
CCOC(=O)c1[nH]c(C)c(CCC(=O)N2CCN(c3cccc(C)c3C)CC2)c1C [NCGC00134568-01] |  | 1330 nM | Decrease | 562 nM | 562 nM | Max Resp (signal direction of the dose response) [3]: Inactive
CC(=O)N1CCN(C(=O)c2ccc3c(c2)NC(C)(COc2ccc4[nH]ccc4c2)CO3)CC1 (stereo not shown) [NCGC00416302] | Inactive |  |  |  |  | 
COc1ccc(NC2=C(c3ccc(C(F)(F)F)cc3)C(=O)c3ccccc32)cc1 [NCGC00107310] |  |  | Decrease | 282 nM | 282 nM | 
CC(=O)Nc1ccc2c(c1)[S+](=O)([O-])N=C(CC(C)C)N2c1ccccc1 [NCGC00475154-01] | Inactive |  |  |  |  | 
CCC(CC)c1cc([C@H]2CN3CC[C@H]2C[C@@H]3CNC(=O)Cc2cccs2)nc(-c2ccncc2)n1 [NCGC00400345-01] |  | 2990 nM | Decrease | 251 nM | 251 nM | Max Resp (signal direction of the dose response) [3]: Decrease; AC50 [3, 6]: 5620 nM; AC50 [3, 7]: 5620 nM
CCOC(=O)c1[nH]c(C)c(CCC(=O)N2CCN(c3cc(Cl)ccc3C)CC2)c1C [NCGC00134588-01] |  | 1190 nM | Decrease | 708 nM | 708 nM | Max Resp (signal direction of the dose response) [3]: Inactive
c1ccc(NCC2CN(Cc3ccccn3)CC23CN(c2ccccc2)C3)cc1 (stereo not shown) [NCGC00415982-01] | Inactive |  |  |  |  | 
N#C/C(=C\c1ccc(Sc2ccc(Cl)cc2)o1)c1nc2ccccc2[nH]1 [MLS000579372-01] |  | 2990 nM | Decrease | 501 nM | 501 nM | 
O=C(O)c1cccc(CN2CC(CNC(=O)c3ccccc3)C3(C2)CN(c2ccccc2)C3)c1 (stereo not shown) [NCGC00415857-01] | Decrease |  |  |  |  | AC50 [1, 4]: 891 nM; AC50 [1, 5]: 891 nM
CCC1=N[S+](=O)([O-])c2cc(NC(=O)C3CC3)ccc2N1CC(C)C [NCGC00475158-01] | Inactive |  |  |  |  | 
Cc1ccc(-c2nn3c(=O)c4c([nH]c3c2C)CCCC4)cc1 [MLS000029798-01] |  | 2990 nM | Decrease | 282 nM | 282 nM | activity at 1 µM ([3]; column 11, read-out: Pb-Luc (P. berghei liver stage), % of control, lower concentration, first repeat): 15%; activity at 1 µM ([3]; column 12, read-out: Pb-Luc (P. berghei liver stage), % of control, lower concentration, second repeat): 11%; activity at 3 µM ([3]; column 8, read-out: Pb-Luc (P. berghei liver stage), % of control, higher concentration, first repeat): 6.61%; activity at 3 µM ([3]; column 9, read-out: Pb-Luc (P. berghei liver stage), % of control, higher concentration, second repeat): 8%
